Data taken from US20250145630A1, “POLYMORPHS OF A PYRIDINYLIMIDAZO[1,2-B]PYRIDAZINE” (Cardurion Pharmaceuticals, Inc., priority 2023, published 2025).

How the values were obtained:
[1] = ambient temperature and humidity
[2] = system: CaMKII; details: CaMKII inhibitor, US publication no. 20220098207; cited from earlier work
[3] = Seven day stability of Formula (I) Form C; format: physicochemical
[4] = Dynamic vapor sorption (DVS); format: physicochemical
Description: Approximately 10-20 mg of sample was placed into a mesh vapor sorption balance pan and loaded into a DVS Intrinsic or Advantage dynamic vapor sorption balance by Surface Measurement Systems. The sample was subjected to a ramping profile from 40-90% relative humidity (RH) at 10% increments, maintaining the sample at each step until a stable weight had been achieved (dm/dt 0.004%, minimum step length 30 minutes, maximum step length 200 or 500 minutes) at 25° C. After completion of the sorption cycle, the sample was dried using the same procedure to 0% RH and then a second sorption cycle back to 40% RH. Two cycles were performed. The weight change during the sorption/desorption cycles were plotted, allowing for the hygroscopic nature of the sample to be determined.

[5] = Storage stability of Formula (I) Form C (long-term and accelerated); format: physicochemical; details: for Chemical Purity Assay: anhydrous; for Crystallinity: to Form C
Description: Formula (I) Form C was evaluated for stability (Table 16 and Table 17). The Form C was stored in polyethylene double bags sealed with Nylon lock ties, and inside a capped polyethylene container at Wilmington PharmaTech Company. The storage conditions were long-term condition 25° C./60% RH, or accelerated condition 40° C./75% RH. The samples were analyzed for appearance, assay, related substances, chiral purity, water content and crystallinity.

[6] = Competitive slurrying of free base Forms A, B and C; format: physicochemical
Description: Competitive slurries were carried out at 20° C. and 60° C. using the following procedure: 1.5 mL slurries of Formula (I) were prepared in t-BME, acetone, ethanol, and 2-Me THF at 60° C. in 2 mL screw cap vials. The slurries were syringe filtered (0.45 μm PTFE filter) after ca. 1 hour to obtain saturated Formula (I) solutions. Ca. 0.6 mL of saturated solution was added to ca. 10 mg of free base Forms A, B, and C to form slurries. The experiments were agitated at either ambient temperature (ca. 20° C.) and 60° C. for 48 h.
After 48 h the slurries were isolated by centrifugation (nylon, 0.22 μm) and analyzed by XRPD. Where mixtures were observed competitive slurrying was continued until mixtures were no longer observed (21 days).

[7] = Storage stability of Formula (I) L-tartaric acid Form 2 co-crystal (long-term and accelerated); format: physicochemical; details: for Chemical Purity Assay: ASFB; for Crystallinity: to Form 2
Description: Formula (I) L-tartaric acid Form 2 co-crystal was evaluated for stability (Table 18 and Table 19). The co-crystal was stored in polyethylene double bags sealed with Nylon lock ties with two (2) 0.5 g silica gel desiccant packets in between, and inside a capped polyethylene container containing four (4) 33 g Silica Gel desiccant packs. The storage conditions were long-term condition 25° C./60% RH or accelerated condition 40° C./75% RH. The samples were analyzed for appearance, assay, related substances, chiral purity, water content and crystallinity.

[8] = as above; format: physicochemical; details: 25° C./60% RH, 0 months; to Form 2

SMILES: COc1ccnc(-c2cnc3ccc(-c4ccc(F)c(O[C@@H](C)Cn5cnnn5)c4)nn23)c1C#N.O=C(O)C(O)C(O)C(=O)O
- form conversion on standing [1]: converted to L-tartaric acid co-crystal Form 2

SMILES: COc1ccnc(-c2cnc3ccc(-c4ccc(F)c(O[C@@H](C)Cn5cnnn5)c4)nn23)c1C#N [Example 321, (S)-2-(6-(3-((1-(1H-tetrazol-1-yl)propan-2-yl)oxy)-4-fluorophenyl)imidazo[1,2-b]pyridazin-3-yl)-4-methoxynicotinonitrile]
- IC50 [2]: < 10 nM

SMILES: COc1ccnc(-c2cnc3ccc(-c4ccc(F)c(O[C@@H](C)Cn5cnnn5)c4)nn23)c1C#N [Formula (I) Form C, (S)-2-(6-(3-((1-(1H-tetrazol-1-yl)propan-2-yl)oxy)-4-fluorophenyl)imidazo[1,2-b]pyridazin-3-yl)-4-methoxynicotinonitrile]
- HPLC Purity ([3]; 7 day, 25° C./60% RH): 99.0 % area
- XRPD Analysis ([3]; 7 day, 25° C./60% RH): Form C
- HPLC Purity ([3]; 7 day, 40° C./75% RH): 99.0 % area
- XRPD Analysis ([3]; 7 day, 40° C./75% RH): Form C
- HPLC Purity ([3]; 7 day, 80° C.): 98.9 % area
- XRPD Analysis ([3]; 7 day, 80° C.): Form C
- HPLC analysis, change in purity after 7 day stability ([3]; 7 day, all conditions): no loss in purity
- XRPD analysis after 7 day stability ([3]; 7 day, all conditions): retained
- Input Purity ([3]; before storage): 98.8 % area
- hygroscopicity by DVS ([4]; 25° C.): slightly hygroscopic
- Post-DVS XRPD analysis ([4]; after DVS): Form C was retained
- uptake (DVS) ([4]; at 80% RH): 0.3%
- Chiral Purity ([5]; 25° C./60% RH, 0 months): >99.9 area %
- Description ([5]; 25° C./60% RH, 0 months): Off-white
- Related Substances: Impurity #1 ([5]; 25° C./60% RH, 0 months): 0.05%
- Related Substances: Impurity #2 ([5]; 25° C./60% RH, 0 months): 0.18%
- Total Impurities ([5]; 25° C./60% RH, 0 months): 0.23%
- Water ([5]; 25° C./60% RH, 0 months): 0.29%
- Chemical Purity Assay ([5]; 25° C./60% RH, 0 months): 100.1 wt %
- Crystallinity ([5]; 25° C./60% RH, 0 months): Conforms
- Chiral Purity ([5]; 25° C./60% RH, 12 months): >99.9 area %
- Description ([5]; 25° C./60% RH, 12 months): Off-white
- Related Substances: Impurity #1 ([5]; 25° C./60% RH, 12 months): 0.05%
- Related Substances: Impurity #2 ([5]; 25° C./60% RH, 12 months): 0.18%
- Total Impurities ([5]; 25° C./60% RH, 12 months): 0.23%
- Water ([5]; 25° C./60% RH, 12 months): 0.32%
- Chemical Purity Assay ([5]; 25° C./60% RH, 12 months): 99.4 wt %
- Crystallinity ([5]; 25° C./60% RH, 12 months): Conforms
- Chiral Purity ([5]; 25° C./60% RH, 24 months): >99.9 area %
- Description ([5]; 25° C./60% RH, 24 months): Off-white
- Related Substances: Impurity #1 ([5]; 25° C./60% RH, 24 months): 0.05%
- Related Substances: Impurity #2 ([5]; 25° C./60% RH, 24 months): 0.18%
- Total Impurities ([5]; 25° C./60% RH, 24 months): 0.23%
- Water ([5]; 25° C./60% RH, 24 months): 0.35%
- Chemical Purity Assay ([5]; 25° C./60% RH, 24 months): 99.4 wt %
- Crystallinity ([5]; 25° C./60% RH, 24 months): Conforms
- B. Unidentified Impurities (RRT: %), first listed ([5]; 40° C./75% RH, 0 months): 0.07%
- B. Unidentified Impurities (RRT: %), second listed ([5]; 40° C./75% RH, 0 months): 0.05%
- Chiral Purity ([5]; 40° C./75% RH, 0 months): >99.9 area %
- Description ([5]; 40° C./75% RH, 0 months): Off-white
- Related Substances: Impurity #1 ([5]; 40° C./75% RH, 0 months): 0.09%
- Related Substances: Impurity #2 ([5]; 40° C./75% RH, 0 months): 0.19%
- Related Substances: Impurity #3 ([5]; 40° C./75% RH, 0 months): <0.05%
- Total Impurities ([5]; 40° C./75% RH, 0 months): 0.40%
- Water ([5]; 40° C./75% RH, 0 months): 0.36%
- Chemical Purity Assay ([5]; 40° C./75% RH, 0 months): 99.6 wt %
- Crystallinity ([5]; 40° C./75% RH, 0 months): Conforms
- B. Unidentified Impurities (RRT: %), first listed ([5]; 40° C./75% RH, 6 months): 0.06%
- B. Unidentified Impurities (RRT: %), second listed ([5]; 40° C./75% RH, 6 months): 0.06%
- Chiral Purity ([5]; 40° C./75% RH, 6 months): >99.9 area %
- Description ([5]; 40° C./75% RH, 6 months): Off-white
- Related Substances: Impurity #1 ([5]; 40° C./75% RH, 6 months): 0.08%
- Related Substances: Impurity #2 ([5]; 40° C./75% RH, 6 months): 0.19%
- Related Substances: Impurity #3 ([5]; 40° C./75% RH, 6 months): 0.05%
- Total Impurities ([5]; 40° C./75% RH, 6 months): 0.44%
- Water ([5]; 40° C./75% RH, 6 months): 0.15%
- Chemical Purity Assay ([5]; 40° C./75% RH, 6 months): 99.3 wt %
- Crystallinity ([5]; 40° C./75% RH, 6 months): Conforms
- B. Unidentified Impurities (RRT: %), first listed ([5]; 40° C./75% RH, 12 months): 0.06%
- Chiral Purity ([5]; 40° C./75% RH, 12 months): >99.9 area %
- Description ([5]; 40° C./75% RH, 12 months): Off-white
- Related Substances: Impurity #1 ([5]; 40° C./75% RH, 12 months): 0.08%
- Related Substances: Impurity #2 ([5]; 40° C./75% RH, 12 months): 0.19%
- Related Substances: Impurity #3 ([5]; 40° C./75% RH, 12 months): <0.05%
- Total Impurities ([5]; 40° C./75% RH, 12 months): 0.33%
- Water ([5]; 40° C./75% RH, 12 months): 0.49%
- Chemical Purity Assay ([5]; 40° C./75% RH, 12 months): 99.6 wt %
- Crystallinity ([5]; 40° C./75% RH, 12 months): Conforms
- Time until Form C was only detected polymorph ([6]; 60° C., 2-Me THF): 2 days
- Time until Form C was only detected polymorph ([6]; 60° C., Ethanol): 2 days
- Time until Form C was only detected polymorph ([6]; 60° C., acetone): 2 days
- Time until Form C was only detected polymorph ([6]; 60° C., t-BME): 15 days
- relative stability of free base polymorphs ([6]; all solvents tested, 20° C. and 60° C.): most stable polymorph
- Time until Form C was only detected polymorph ([6]; ambient (ca. 20° C.), 2-Me THF): 9 days
- Time until Form C was only detected polymorph ([6]; ambient (ca. 20° C.), Ethanol): 8 days
- Time until Form C was only detected polymorph ([6]; ambient (ca. 20° C.), acetone): 2 days
- Time until Form C was only detected polymorph ([6]; ambient (ca. 20° C.), t-BME): 21 days

SMILES: COc1ccnc(-c2cnc3ccc(-c4ccc(F)c(O[C@@H](C)Cn5cnnn5)c4)nn23)c1C#N.COc1ccnc(-c2cnc3ccc(-c4ccc(F)c(O[C@@H](C)Cn5cnnn5)c4)nn23)c1C#N.O.O=C(O)C(O)C(O)C(=O)O.O=C(O)C(O)C(O)C(=O)O [Formula (I) L-Tartaric Acid Form 2]
- Chiral Purity ([7]; 25° C./60% RH, 0 months): >99.9 area %
- Description ([7]; 25° C./60% RH, 0 months): Off-white
- Related Substances: Impurity #1 ([7]; 25° C./60% RH, 0 months): 0.25%
- Total Impurities ([7]; 25° C./60% RH, 0 months): 0.25%
- Water ([7]; 25° C./60% RH, 0 months): 1.59%
- Chemical Purity Assay ([7]; 25° C./60% RH, 0 months): 99.3 wt %
- Description ([7]; 25° C./60% RH, 3 months): Off-white
- Related Substances: Impurity #1 ([7]; 25° C./60% RH, 3 months): 0.25%
- Total Impurities ([7]; 25° C./60% RH, 3 months): 0.25%
- Water ([7]; 25° C./60% RH, 3 months): 1.58%
- Chemical Purity Assay ([7]; 25° C./60% RH, 3 months): 99.6 wt %
- Crystallinity ([7]; 25° C./60% RH, 3 months): Conforms
- Chiral Purity ([7]; 25° C./60% RH, 6 months): >99.9 area %
- Description ([7]; 25° C./60% RH, 6 months): Off-white
- Related Substances: Impurity #1 ([7]; 25° C./60% RH, 6 months): 0.26%
- Total Impurities ([7]; 25° C./60% RH, 6 months): 0.26%
- Water ([7]; 25° C./60% RH, 6 months): 1.55%
- Chemical Purity Assay ([7]; 25° C./60% RH, 6 months): 99.3 wt %
- Crystallinity ([7]; 25° C./60% RH, 6 months): Conforms
- Chiral Purity ([7]; 40° C./75% RH, 0 months): >99.9 area %
- Description ([7]; 40° C./75% RH, 0 months): Off-white
- Related Substances: Impurity #1 ([7]; 40° C./75% RH, 0 months): 0.25%
- Total Impurities ([7]; 40° C./75% RH, 0 months): 0.25%
- Water ([7]; 40° C./75% RH, 0 months): 1.59%
- Chemical Purity Assay ([7]; 40° C./75% RH, 0 months): 99.3 wt %
- Crystallinity ([7]; 40° C./75% RH, 0 months): Conforms
- Description ([7]; 40° C./75% RH, 3 months): Off-white
- Related Substances: Impurity #1 ([7]; 40° C./75% RH, 3 months): 0.25%
- Total Impurities ([7]; 40° C./75% RH, 3 months): 0.25%
- Water ([7]; 40° C./75% RH, 3 months): 1.56%
- Chemical Purity Assay ([7]; 40° C./75% RH, 3 months): 99.3 wt %
- Crystallinity ([7]; 40° C./75% RH, 3 months): Conforms
- Chiral Purity ([7]; 40° C./75% RH, 6 months): >99.9 area %
- Description ([7]; 40° C./75% RH, 6 months): Off-white
- Related Substances: Impurity #1 ([7]; 40° C./75% RH, 6 months): 0.25%
- Total Impurities ([7]; 40° C./75% RH, 6 months): 0.25%
- Water ([7]; 40° C./75% RH, 6 months): 1.60%
- Chemical Purity Assay ([7]; 40° C./75% RH, 6 months): 100.0 wt %
- Crystallinity ([7]; 40° C./75% RH, 6 months): Conforms
- Crystallinity [8]: Conforms
